The assay has as its system Runx2. Description: Runx2 activity, 6xOSE2-Luc luciferase reporter in transfected C2C12 cells. The assay is classed as cell-based, Mouse. The following applies: Mus musculus, 24 hrs, read-out: luciferase activity relative to control set as 1. As to the method: Mouse premyoblast cell (C2C12 cell) was transfected using receptor vector 6xOSE2-Luc in order to investigate the activity of the amide compound of the present invention on Runx2.
Specifically, the receptor vector 6xOSE2-Luc was prepared by inserting an artificial promoter linked by six tandem copies of the OSE2 (osteoblast specific element-2) into vector pGL3 (Promega; Madison, Wis., U.S.A.), and then, cloned into the C2C12 cell to be transfected (Kim et al., Journal of Cellular Biochemistry, 91: 1239-1247, 2004). The OSE2 is the binding site of Runx2 in the promoter of osteocalcin which is a bone marker.
C2C12 cells (5,000 cells/well) were plated onto 96-well plates using 10% FBS (fetal bovine serum; Hyclone)-containing DMEM (Dulbecco's Modified Eagle's Medium), the medium was replaced with 5% FBS-containing DMEM after 24 hrs, and treated with each of the amide compounds obtained in Examples 1 to 94 at various concentrations of 2.5 μM, 5.0 μM, 10 μM, and 20 μM. As a control, dimethyl sulfoxide (DMSO) vehicle was applied to the cell in an amount same as that of the amide compound. After 24 hrs, the luciferase activity in the cell lysate was measured by using Dual-Luciferase Reporter Assay System (Promega). The luciferase activity of the amide compound of the present invention was calculated as a value relative to that observed for the control which was set as 1.

The text below walks through data of patent publication US8716326B2, “Isoindolinone derivatives, preparation method thereof and a pharmaceutical composition comprising same” (Korea Research Institute of Chemical Technology, priority 2009, dated 2014).

The structures appear in SMILES notation.

As to `Nc1ccccc1NC(=O)c1ccc(CN2Cc3cc(-c4ccccc4)ccc3C2=O)cc1` [Example 57, N-(2-aminophenyl)-4-((1-oxo-5-phenylisoindolin-2-yl)methyl)benzamide], the fold induction at 2.5 µM is 7.3, the fold induction at 5 µM is 8.9, the fold induction at 10 µM was found to be 10.9 and the fold induction at 20 µM was determined as 10.7.

With `Cc1c(C(=O)NCc2ccc(C(=O)Nc3ccccc3N)cc2)cccc1-c1ccccc1` [Example 69, N-(2-aminophenyl)-4-((2-methyl-3-phenyl-benzamido)methyl)benzamide], the fold induction at 2.5 µM worked out at 13.5, the fold induction at 5 µM is 22, the fold induction at 10 µM stood at 29.2 and the fold induction at 20 µM stood at 30.6.

Take `Cc1ccc(-c2cccc3c2CN(Cc2ccc(C(=O)Nc4ccccc4N)cc2)C3=O)cc1F` [Example 27, N-(2-aminophenyl)-4-((4-(3-fluoro-4-methylphenyl)-1-oxoisoindolin-2-yl)methyl)benzamide]: the fold induction at 2.5 µM turned out to be 9.9, the fold induction at 5 µM amounted to 17.5, the fold induction at 10 µM was found to be 22.5 and the fold induction at 20 µM was 20.3.

Regarding `Nc1ccccc1NC(=O)CCCCCN1Cc2c(cccc2-c2ccccc2)C1=O` [Example 37, N-(2-aminophenyl)-6-(1-oxo-4-phenylisoindolin-2-yl)hexanamide], the fold induction at 2.5 µM was found to be 1.6, the fold induction at 5 µM stood at 2.6, the fold induction at 10 µM amounted to 6.8 and the fold induction at 20 µM was determined as 12.5.

`Nc1ccccc1NC(=O)c1ccc(CN2Cc3c(cccc3-c3cncnc3)C2=O)cc1` [Example 10, N-(2-aminophenyl)-4-((1-oxo-4-(pyrimidin-5-yl)isoindolin-2-yl)methyl)benzamide]: the fold induction at 2.5 µM was found to be 7.9, the fold induction at 5 µM turned out to be 11.6, the fold induction at 10 µM is 14.4 and the fold induction at 20 µM stood at 16.7.

For the compound `COc1cc(C(=O)NCc2ccc(C(=O)Nc3ccccc3N)cc2)c(C)c(-c2cncnc2)c1OC` [Example 75, N-(2-aminophenyl)-4-((2-methyl-4,5-dimethoxy-3-(5-pyrimidinyl)-benzamido)methyl)benzamide], the fold induction at 2.5 µM is 2.5, the fold induction at 5 µM is 4.7, the fold induction at 10 µM was found to be 12.4 and the fold induction at 20 µM was determined as 27.8.

Regarding `Nc1ccccc1NC(=O)c1ccc(CN2Cc3c(cccc3-c3ccccc3)C2=O)cc1` [Example 11, N-(2-aminophenyl)-4-((1-oxo-4-phenylisoindolin-2-yl)methyl)benzamide], the fold induction at 2.5 µM is 8.3, the fold induction at 5 µM worked out at 12.3, the fold induction at 10 µM is 15.6 and the fold induction at 20 µM was 16.8.

With `COc1ccc(-c2cccc3c2CN(CCCCCC(=O)NO)C3=O)c(OC)c1` [Example 39, N-hydroxy-6-(4-(2,4-dimethoxyphenyl)-1-oxoisoindolin-2-yl)hexanamide], the fold induction at 2.5 µM worked out at 1.4, the fold induction at 5 µM came out at 2.1, the fold induction at 10 µM turned out to be 5.3 and the fold induction at 20 µM came out at 25.6.

As for `COc1cc2c(c(-c3cc(F)cc(F)c3)c1OC)CN(CCCCCC(=O)Nc1ccccc1N)C2=O` [Example 34, N-(2-aminophenyl)-6-(4-(3,5-difluorophenyl)-5,6-dimethoxy-1-oxoisoindolin-2-yl)hexanamide], the fold induction at 2.5 µM stood at 3.7, the fold induction at 5 µM is 7.4, the fold induction at 10 µM amounted to 18 and the fold induction at 20 µM was 23.

As for `Nc1ccccc1NC(=O)c1ccc(CN2Cc3cc(-c4cccnc4)ccc3C2=O)cc1` [Example 61, N-(2-aminophenyl)-4-((1-oxo-5-(pyridin-3-yl)isoindolin-2-yl)methyl)benzamide], the fold induction at 2.5 µM came to 9.6, the fold induction at 5 µM came to 10.6, the fold induction at 10 µM stood at 14.2 and the fold induction at 20 µM amounted to 15.6.

Turning to `Cc1cc(C)cc(-c2ccc3c(c2)CN(CCCCCC(=O)NO)C3=O)c1` [Example 52, N-hydroxy-6-(5-(3,5-dimethylphenyl)-1-oxoisoindolin-2-yl)hexanamide], the fold induction at 2.5 µM came to 2.4, the fold induction at 5 µM is 4.7, the fold induction at 10 µM was determined as 12.6 and the fold induction at 20 µM worked out at 20.4.

`O=C(CCCCCN1Cc2c(cccc2-c2cccnc2)C1=O)NO` [Example 43, N-hydroxy-6-(1-oxo-4-(pyridin-3-yl)isoindolin-2-yl)hexanamide]: the fold induction at 2.5 µM amounted to 1.1, the fold induction at 5 µM stood at 1.3, the fold induction at 10 µM was determined as 1.8 and the fold induction at 20 µM turned out to be 3.2.

Turning to `Cc1cc(C)cc(-c2ccc(C(=O)NCCCCCC(=O)Nc3ccccc3N)cc2C)c1` [Example 91, N-(5-(2-aminophenylcarbamoyl)pentyl)-3-methyl-4-(3,5-dimethylphenyl)-benzamide], the fold induction at 2.5 µM came out at 1.1, the fold induction at 5 µM was 1.5, the fold induction at 10 µM came to 2.9 and the fold induction at 20 µM worked out at 3.9.

As to `Cc1c(C(=O)NCCCCCC(=O)NO)cccc1-c1ccccc1` [Example 92, N-(5-(hydroxycarbamoyl)pentyl)-2-methyl-3-phenylbenzamide], the fold induction at 2.5 µM is 4.1, the fold induction at 5 µM is 8.8, the fold induction at 10 µM was 12.4 and the fold induction at 20 µM stood at 11.5.

With `COc1ccc(-c2cccc3c2CN(Cc2ccc(C(=O)Nc4ccccc4N)cc2)C3=O)cc1F` [Example 24, N-(2-aminophenyl)-4-((4-(3-fluoro-4-methoxyphenyl)-1-oxoisoindolin-2-yl)methyl)benzamide], the fold induction at 2.5 µM worked out at 11.8, the fold induction at 5 µM worked out at 17.3, the fold induction at 10 µM worked out at 19.6 and the fold induction at 20 µM was 21.2.

`Nc1ccccc1NC(=O)c1ccc(CN2Cc3c(cccc3-c3ccc4c(c3)OCO4)C2=O)cc1` [Example 19, N-(2-aminophenyl)-4-((4-(benzo[d][1,3]dioxol-6-yl)-1-oxoisoindolin-2-yl)methyl)benzamide]: the fold induction at 2.5 µM was 10.8, the fold induction at 5 µM came out at 9.9, the fold induction at 10 µM was 11.7 and the fold induction at 20 µM came to 14.

With `O=C(CCCCCN1Cc2cc(-c3cccnc3)ccc2C1=O)NO` [Example 54, N-hydroxy-6-(1-oxo-5-(pyridin-3-yl)isoindolin-2-yl)hexanamide], the fold induction at 2.5 µM was determined as 1.5, the fold induction at 5 µM was 2.9, the fold induction at 10 µM amounted to 8.9 and the fold induction at 20 µM is 19.8.

For `COc1cc(C(=O)NCc2ccc(C(=O)Nc3ccccc3N)cc2)c(C)c(-c2cccnc2)c1OC` [Example 76, N-(2-aminophenyl)-4-((2-methyl-3-(3-pyridinyl)-4,5-dimethoxy-benzamido)methyl)benzamide], the fold induction at 2.5 µM is 4.5, the fold induction at 5 µM turned out to be 8.5, the fold induction at 10 µM was 20.8 and the fold induction at 20 µM came to 32.9.

In the case of `Cc1cc(C(=O)NCCCCCC(=O)Nc2ccccc2N)ccc1-c1cccnc1` [Example 88, N-(5-(2-aminophenylcarbamoyl)pentyl)-3-methyl-4-(3-pyridinyl)-benzamide], the fold induction at 2.5 µM is 6, the fold induction at 5 µM was 16.8, the fold induction at 10 µM was 28.1 and the fold induction at 20 µM was 41.2.

Take `O=C(CCCCCN1Cc2cc(-c3ccc(C(F)(F)F)cc3)ccc2C1=O)NO` [Example 55, 6-(5-(4-(trifluoromethyl)phenyl)-1-oxoisoindolin-2-yl)-N-hydroxyhexanamide]: the fold induction at 2.5 µM stood at 2.7, the fold induction at 5 µM was determined as 3.7, the fold induction at 10 µM turned out to be 5.5 and the fold induction at 20 µM was found to be 13.3.

`COc1cc2c(c(-c3cccnc3)c1OC)CN(Cc1ccc(C(=O)Nc3ccccc3N)cc1)C2=O` [Example 4, N-(2-aminophenyl)-4-((5,6-dimethoxy-1-oxo-4-(pyridin-3-yl)isoindolin-2-yl)methyl)benzamide]: the fold induction at 2.5 µM turned out to be 37, the fold induction at 5 µM turned out to be 42.2, the fold induction at 10 µM amounted to 36.6 and the fold induction at 20 µM was 36.7.

On to `Cc1c(Br)cccc1C(=O)NCc1ccc(C(=O)Nc2ccccc2N)cc1` [Example 68, N-(2-aminophenyl)-4-((3-bromo-2-methylbenzamido)methyl)benzamide], for which the fold induction at 2.5 µM was 9, the fold induction at 5 µM was found to be 10.1, the fold induction at 10 µM was determined as 12.8 and the fold induction at 20 µM was 15.6.

Take `Nc1ccccc1NC(=O)c1ccc(CN2Cc3cc(-c4ccc5ccccc5c4)ccc3C2=O)cc1` [Example 67, N-(2-aminophenyl)-4-((5-(naphthalen-2-yl)-1-oxoisoindolin-2-yl)methyl)benzamide]: the fold induction at 2.5 µM worked out at 1.4, the fold induction at 5 µM was 2, the fold induction at 10 µM was 2.9 and the fold induction at 20 µM turned out to be 6.1.
